# Measured values from patent US11135234B2, “Effective aminoglycoside antibiotic for multidrug-resistant bacteria” (MICROBIAL CHEMISTRY RESEARCH FOUNDATION, priority 2015, dated 2021).
# Tests used:
# S. aureus RN4220 = experiment: MIC, agar plate dilution method, S. aureus RN4220; format: cell-based, Staphylococcus aureus; settings: for minimal inhibitory concentration (MIC): S. aureus RN4220, Sensitive bacterium; for MIC: Staphylococcus aureus, RN4220, S. aureus RN4220, Sensitive bacterium, read-out: minimal inhibitory concentration (MIC)
# Procedure: (§1) As for the representative compounds of a new aminoglycoside antibiotic of the present invention described in Examples, the minimal inhibitory concentration (MIC, μg/mL) was measured for various assay strains of bacteria using an agar plate dilution method in accordance with the method described in the Japan Society of Chemotherapy.
# S. aureus RN4220/pMS520 = experiment: MIC, agar plate dilution method, S. aureus RN4220/pMS520; format: cell-based, Staphylococcus aureus; settings: for minimal inhibitory concentration (MIC): S. aureus RN4220/pMS520, MRSA; for MIC: Staphylococcus aureus, MRSA, read-out: minimal inhibitory concentration (MIC), S. aureus RN4220/pMS520, MRSA
# Procedure: as §1
# S. aureus MF490 = experiment: MIC, agar plate dilution method, S. aureus MF490; format: cell-based, Staphylococcus aureus; settings: for minimal inhibitory concentration (MIC): S. aureus MF490, MRSA; for MIC: Staphylococcus aureus, MRSA, read-out: minimal inhibitory concentration (MIC)
# Procedure: as §1
# E. faecium ATCC19434 = experiment: MIC, agar plate dilution method, E. faecium ATCC19434; format: cell-based, Enterococcus faecium; settings: for minimal inhibitory concentration (MIC): E. faecium ATCC19434; for MIC: Enterococcus faecium, ATCC19434, E. faecium ATCC19434, read-out: minimal inhibitory concentration (MIC)
# Procedure: as §1
# E. coli JM109/pMW218 = experiment: MIC, agar plate dilution method, E. coli JM109/pMW218; format: cell-based, Escherichia coli; settings: for minimal inhibitory concentration (MIC): E. coli JM109/pMW218, Sensitive bacterium; for MIC: Escherichia coli, JM109/PMW218, E. coli JM109/pMW218, Sensitive bacterium, read-out: minimal inhibitory concentration (MIC)
# Procedure: as §1
# [1] = tested on: K. pneumoniae ATCC BAA-1705; experiment: MIC, agar plate dilution method, K. pneumoniae ATCC BAA-1705; format: cell-based, Klebsiella pneumoniae; settings: for minimal inhibitory concentration (MIC): K. pneumoniae ATCC BAA-1705, KPC-producing strain; for MIC: Klebsiella pneumoniae, ATCCBAA1705, K. pneumoniae ATCC BAA-1705, KPC-producing strain, read-out: minimal inhibitory concentration (MIC)
# Procedure: as §1
# [2] = tested on: K. pneumoniae ATCC BAA-2146; experiment: MIC, agar plate dilution method, K. pneumoniae ATCC BAA-2146; format: cell-based, Klebsiella pneumoniae; settings: for minimal inhibitory concentration (MIC): K. pneumoniae ATCC BAA-2146, NDM-producing strain; for MIC: Klebsiella pneumoniae, ATCCBAA2146, K. pneumoniae ATCC BAA-2146, NDM-producing strain, read-out: minimal inhibitory concentration (MIC)
# Procedure: as §1
# [3] = tested on: A. baumannii ATCC BAA-1710; experiment: MIC, agar plate dilution method, A. baumannii ATCC BAA-1710; format: cell-based, Acinetobacter baumannii; settings: for minimal inhibitory concentration (MIC): A. baumannii ATCC BAA-1710, MDRA; for MIC: Acinetobacter baumannii, ATCCBAA1710, A. baumannii ATCC BAA-1710, MDRA, read-out: minimal inhibitory concentration (MIC)
# Procedure: as §1
# S. marcescens TH-0447 = experiment: MIC, agar plate dilution method, S. marcescens TH-0447; format: cell-based, Serratia marcescens; settings: for minimal inhibitory concentration (MIC): S. marcescens TH-0447, AMK-resistant; for MIC: Serratia marcescens, TH0447, S. marcescens TH-0447, AMK-resistant, read-out: minimal inhibitory concentration (MIC)
# Procedure: as §1
# S. marcescens GN6944 = experiment: MIC, agar plate dilution method, S. marcescens GN6944; format: cell-based, Serratia marcescens; settings: S. marcescens GN6944, GM-resistant; for MIC: Serratia marcescens, read-out: minimal inhibitory concentration (MIC)
# Procedure: as §1
# P. aeruginosa PAO1 = experiment: MIC, agar plate dilution method, P. aeruginosa PAO1; format: cell-based, Pseudomonas aeruginosa; settings: for minimal inhibitory concentration (MIC): P. aeruginosa PAO1, Sensitive bacterium; for MIC: Pseudomonas aeruginosa, PAO1, P. aeruginosa PAO1, Sensitive bacterium, read-out: minimal inhibitory concentration (MIC)
# Procedure: as §1
# P. aeruginosa PAO1/GN315 = experiment: MIC, agar plate dilution method, P. aeruginosa PAO1/GN315; format: cell-based, Pseudomonas aeruginosa; settings: for minimal inhibitory concentration (MIC): P. aeruginosa PAO1/GN315, AMK-resistant; for MIC: Pseudomonas aeruginosa, read-out: minimal inhibitory concentration (MIC), P. aeruginosa PAO1/GN315, AMK-resistant
# Procedure: as §1
# P. aeruginosa MSC17707 = experiment: MIC, agar plate dilution method, P. aeruginosa MSC17707; format: cell-based, Pseudomonas aeruginosa; settings: for minimal inhibitory concentration (MIC): P. aeruginosa MSC17707, AMK-resistant
# Procedure: as §1
# P. aeruginosa MSC01035 = experiment: MIC, agar plate dilution method, P. aeruginosa MSC01035; format: cell-based, Pseudomonas aeruginosa; settings: P. aeruginosa MSC01035, ABK-resistant; for MIC: Pseudomonas aeruginosa, read-out: minimal inhibitory concentration (MIC)
# Procedure: as §1
Compound,minimal inhibitory concentration (MIC) (S. aureus RN4220),minimal inhibitory concentration (MIC) (S. aureus RN4220/pMS520),minimal inhibitory concentration (MIC) (S. aureus MF490),minimal inhibitory concentration (MIC) (E. faecium ATCC19434),minimal inhibitory concentration (MIC) (E. coli JM109/pMW218),minimal inhibitory concentration (MIC) [1],minimal inhibitory concentration (MIC) [2],minimal inhibitory concentration (MIC) [3],minimal inhibitory concentration (MIC) (S. marcescens TH-0447),minimal inhibitory concentration (MIC) (S. marcescens GN6944),minimal inhibitory concentration (MIC) (P. aeruginosa PAO1),minimal inhibitory concentration (MIC) (P. aeruginosa PAO1/GN315),minimal inhibitory concentration (MIC) (P. aeruginosa MSC17707),minimal inhibitory concentration (MIC) (P. aeruginosa MSC01035),MIC (S. aureus RN4220),MIC (S. aureus RN4220/pMS520),MIC (S. aureus MF490),MIC (E. faecium ATCC19434),MIC (E. coli JM109/pMW218),MIC [1],further results
"4″-N-(trans-1,4-4-aminocyclohexyl)apramycin [Compound A4-g]",4 µg/mL,4 µg/mL,16 µg/mL,32 µg/mL,2 µg/mL,2 µg/mL,2 µg/mL,32 µg/mL,16 µg/mL,16 µg/mL,16 µg/mL,16 µg/mL,32 µg/mL,32 µg/mL,–,–,–,–,–,–,–
"CNC1C(O[C@H]2OC(CO)[C@@H](NC(=O)CN)[C@H](O)C2O)O[C@H]2CC(N)[C@@H](O[C@@H]3C(N)C[C@@H](N)C(O)[C@H]3O)OC2C1O (single isomer, unassigned) [Compound V1-a, 4″-N-glycylapramycin]",4 µg/mL,4 µg/mL,16 µg/mL,32 µg/mL,2 µg/mL,2 µg/mL,2 µg/mL,8 µg/mL,8 µg/mL,8 µg/mL,4 µg/mL,4 µg/mL,8 µg/mL,4 µg/mL,–,–,–,–,–,–,–
"CNC1C(O[C@H]2OC(CO)[C@@H](NC(=O)CN)[C@H](O)C2O)O[C@H]2CC(N)[C@@H](O[C@@H]3C(N)C[C@@H](N)C(O)[C@H]3O)OC2C1O (single isomer, unassigned) [Compound V1-i, 5-epi-4″-N-glycylapramycin]",–,–,–,–,–,–,–,–,–,–,–,–,2 µg/mL,–,2 µg/mL,2 µg/mL,8 µg/mL,16 µg/mL,1 µg/mL,2 µg/mL,MIC [2]: 1 µg/mL; MIC [3]: 4 µg/mL; MIC (S. marcescens TH-0447): 8 µg/mL; MIC (S. marcescens GN6944): 8 µg/mL; MIC (P. aeruginosa PAO1): 2 µg/mL; MIC (P. aeruginosa PAO1/GN315): 4 µg/mL; MIC (P. aeruginosa MSC01035): 4 µg/mL
"NCC[C@H](O)C(=O)N[C@@H]1C[C@H](N)[C@@H](O[C@H]2O[C@H](CN)CC[C@H]2N)[C@H](O)[C@H]1O[C@H]1O[C@H](CO)[C@@H](O)[C@H](N)[C@H]1O [ABK, arbekacin, reference compound]",–,–,–,–,–,–,–,–,–,–,–,–,–,–,1 µg/mL,1 µg/mL,64 µg/mL,8 µg/mL,0.5 µg/mL,16 µg/mL,"MIC [2]: > 64 µg/mL; MIC [3]: 32 µg/mL; MIC (S. marcescens TH-0447): 64 µg/mL; MIC (S. marcescens GN6944): 8 µg/mL; MIC (P. aeruginosa PAO1): 2 µg/mL; MIC (P. aeruginosa PAO1/GN315): 8 µg/mL; MIC (P. aeruginosa MSC17707; Pseudomonas aeruginosa, MSC17707, P. aeruginosa MSC17707, AMK-resistant, read-out: minimal inhibitory concentration (MIC)): 4 µg/mL; MIC (P. aeruginosa MSC01035): > 64 µg/mL"
